Results on one molecule are retold here after paper PMC5062470, “The mGluR2 positive allosteric modulator, SAR218645, improves memory and attention deficits in translational models of cognitive symptoms associated with schizophrenia” (Scientific Reports, 2016).

Data set [1] deals with Sprague-Dawley rats. As to the kind of experiment: Catalepsy test. It is filed as in vivo. The note with it: 30, po. As for the experimental part:
Male Sprague-Dawley rats weighing 225–234 g were used. Each animal was placed such that their forepaws rested on a wooden dowel (1 × 18 cm) mounted horizontally 9 cm from the floor and 4 cm from one end of a white translucent plastic box (26 × 20 × 15 cm). The amount of time each rat spent with at least one forepaw on the bar was determined, for a maximum period of 540 s. This procedure was repeated three times. White noise was used during the acclimation and test periods to minimize the effects of outside noises. SAR218645 was administered alone at a dose of 30 mg/kg po. Haloperidol (1 mg/kg ip) was used alone and in co-administration with SAR218645 (1, 3, and 10 mg/kg, po). Statistics consisted of using a one-way ANOVA, followed by a post-hoc Dunnett’s test for individual comparisons. Ten animals per group were used.

Data set [2] deals with CD-1 mice. As to the kind of experiment: LY404039-induced turning behavior. The format is in vivo. The protocol:
Under light restraint, a single unilateral intracortical infusion of the selective mGluR2/3 receptor agonist, LY404039, was performed in CD-1 mice (25–30 g at arrival). An injection point was assessed using the eyes and back of the skull as landmarks. Immediately following the application of LY404039, the observation period began. The number of contralateral turns elicited in a 5 min period was recorded. SAR218645 was administered orally 60 min before infusion of LY404039 and the potentiation of the turning behavior was noted. The selective mGluR2/3 receptor antagonist, LY341495, was administered ip 90 min prior to infusion of LY404039. Statistical analysis was performed using Kruskal Wallis test followed by a Wilcoxon two-tailed comparison. Ten animals per group were used.

The test system of data set [3] is OF1 mice. The experiment in a line: Maximal electroshock seizure (MES) test. The format is in vivo. As for the experimental part: SAR218645 (30 mg/kg, po) and the reference anticonvulsant agent, diazepam (10 mg/kg), were administered ip to OF1 mice (12–14 g) 30 min prior to test, respectively. An electrical stimulus (60 Hz, 0.8 ms rectangular pulse, 0.4 s duration, 50 mA) was applied to both corneas. The occurrence of tonic extension of the hindlimbs was noted.
For orientation: The maximal electroshock test induces tonic seizures with an electrical stimulus.

The test system of data set [4] is Sprague-Dawley rats. The experiment in a line: Amphetamine-induced disruption of auditory evoked potentials (AEP). It is filed as in vivo. From the text: All recordings were made using Spike2 software (Cambridge Electronic Design, Cambridge, UK) running on a Windows PC connected to a 1401 interface (Cambridge Electronic Design, Cambridge, UK). EEG recordings were created by connecting the skull plug to an amplifying head stage (AI 1401, Axon Instruments, Union City, CA, USA), via a 6-channel commutator and cable (Plastics One, Roanoke, VA, USA). The signal was then further amplified with a multichannel amplifier (Cyberamp 380, Axon Instruments, Union City, CA, USA). Auditory stimuli were controlled by the interface via an eight channel power amplifier (SA8, Tucker Davis Technologies, Alachua, FL) connected to a patch panel (PP16, Tucker Davis Technologies), which was connected to speakers located above each cage (TDT Magnetic Speakers, Tucker Davis Technologies). During recording sessions, animals were placed inside standard mouse cages (30 × 15 × 15 cm) and rigged so that the six channel cables could connect with the rest of the apparatus outside of the cage.
Male Sprague-Dawley rats (150–180 g at arrival) were anesthetized with 3% isoflurane and their scalp was shaved and prepared for surgery. An incision was made in the scalp and the skin was retracted to allow direct contact with the skull surface. The skull was cleaned with a dry Q-tip and five holes were drilled through the skull. Three holes were drilled at coordinates AP + 1 mm, ML + 1 mm (reference); AP−4 mm, ML ± 4 mm (leads 1 and 2) relative to bregma, while an additional hole was drilled in the frontal area (ground) and another hole was drilled at the midpoint between the anterior and posterior coordinate (anchor). […]
AEP data analysis: Data were collected and analyzed using Spike2 software (CED Software, Cambridge, UK). […] Then a horizontal cursor was placed at the highest and lowest (peak and trough) point of the P1/N1 wave, for both the wave occurring to the first tone (S1) and to the second tone (S2), and the value was recorded into an Excel spreadsheet. […]

The target in data set [5] is T1, human mGluR3 (Homo sapiens, UniProt Q14832).
T1 construct: host or cells: HEK293 co-expressing Gqi5
T1 sequence (Q14832 23-879): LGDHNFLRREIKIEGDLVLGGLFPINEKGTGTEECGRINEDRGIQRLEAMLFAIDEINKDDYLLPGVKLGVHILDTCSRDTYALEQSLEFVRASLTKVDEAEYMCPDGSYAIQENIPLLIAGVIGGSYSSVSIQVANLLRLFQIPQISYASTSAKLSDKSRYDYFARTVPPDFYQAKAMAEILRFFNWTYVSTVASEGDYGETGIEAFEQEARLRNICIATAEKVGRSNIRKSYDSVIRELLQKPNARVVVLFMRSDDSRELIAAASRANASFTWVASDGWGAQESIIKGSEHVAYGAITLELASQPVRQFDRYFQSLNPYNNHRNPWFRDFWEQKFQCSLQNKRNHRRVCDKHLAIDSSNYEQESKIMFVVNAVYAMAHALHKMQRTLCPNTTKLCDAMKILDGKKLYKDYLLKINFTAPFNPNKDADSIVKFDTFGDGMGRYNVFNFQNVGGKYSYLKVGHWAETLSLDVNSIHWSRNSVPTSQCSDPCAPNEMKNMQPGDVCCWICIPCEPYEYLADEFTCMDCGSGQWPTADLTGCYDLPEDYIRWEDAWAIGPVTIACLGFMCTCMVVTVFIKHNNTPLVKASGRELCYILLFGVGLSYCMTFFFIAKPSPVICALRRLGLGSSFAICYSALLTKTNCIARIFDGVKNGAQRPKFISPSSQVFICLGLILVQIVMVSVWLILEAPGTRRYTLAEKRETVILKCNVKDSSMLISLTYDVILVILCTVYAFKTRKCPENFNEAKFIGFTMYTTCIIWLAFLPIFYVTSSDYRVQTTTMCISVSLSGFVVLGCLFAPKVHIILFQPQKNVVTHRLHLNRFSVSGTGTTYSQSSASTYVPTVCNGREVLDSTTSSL
As to the kind of experiment: Multispan Allosteric Profiling panel, Ca2+ (Gqi5). The format is cell-based.

Data set [6] concerns the target human mGluR2 (Homo sapiens, UniProt Q14416). As to the kind of experiment: Forskolin-stimulated cAMP accumulation in HEK293 cells. It is filed as cell-based. On the set-up: expressed in transfected cells; host or cells: HEK293 Flp-in-T-REx (inducible), co-expressing Gα16. The protocol: Recombinant human mGluR2 receptor and the excitatory amino acid transporter SLCA1 were stably expressed in a doxycycline inducible HEK293 Flp-in-T-Rex cell line. […] Cells were treated with the compounds, and cAMP production was induced with 1 μM Forskolin for 5 min. cAMP was detected using the CisBio HTRF detection kit. […] EC50 were calculated using 4-parameter curve fitting.
(Cyclic AMP is a second messenger, typically raised through Gs and lowered through Gi signalling.)

Sequence of human mGluR2 (Q14416 19-872): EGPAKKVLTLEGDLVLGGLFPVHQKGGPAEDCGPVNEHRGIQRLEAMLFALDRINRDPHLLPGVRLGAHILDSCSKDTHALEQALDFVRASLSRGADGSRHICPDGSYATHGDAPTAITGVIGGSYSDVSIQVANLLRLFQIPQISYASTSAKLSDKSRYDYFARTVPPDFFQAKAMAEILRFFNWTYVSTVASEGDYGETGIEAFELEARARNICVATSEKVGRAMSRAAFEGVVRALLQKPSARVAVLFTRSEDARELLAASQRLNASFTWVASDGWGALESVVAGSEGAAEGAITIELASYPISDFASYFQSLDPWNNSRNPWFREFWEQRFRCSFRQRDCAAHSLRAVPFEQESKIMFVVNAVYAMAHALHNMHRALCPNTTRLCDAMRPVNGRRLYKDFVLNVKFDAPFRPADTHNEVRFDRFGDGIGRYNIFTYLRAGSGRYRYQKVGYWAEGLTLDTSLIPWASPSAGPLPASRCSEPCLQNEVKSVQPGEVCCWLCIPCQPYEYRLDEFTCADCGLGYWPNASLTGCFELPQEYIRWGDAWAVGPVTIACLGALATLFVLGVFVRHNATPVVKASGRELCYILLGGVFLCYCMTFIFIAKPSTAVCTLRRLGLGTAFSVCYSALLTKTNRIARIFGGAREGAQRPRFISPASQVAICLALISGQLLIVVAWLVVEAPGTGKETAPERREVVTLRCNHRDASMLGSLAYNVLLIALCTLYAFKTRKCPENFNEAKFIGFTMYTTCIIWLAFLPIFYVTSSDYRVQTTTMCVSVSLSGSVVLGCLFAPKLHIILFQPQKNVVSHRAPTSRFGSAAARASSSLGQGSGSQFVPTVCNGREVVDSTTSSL

On to `CC1(C)CCc2cc(OC[C@@H]3Cn4ccc(=O)nc4O3)ccc21` [SAR218645, (S)-2-(1,1-dimethyl-indan-5-yloxymethyl)-2,3-dihydro-oxazolo[3,2-a]pyrimidin-7-one], for which the Minimal active dose is over 30 mg/kg in data set [1]; 3 mg/kg in data set [2] (dose-range 1–10, po, CD-1 mice); over 30 mg/kg in data set [3] (30, ip, OF1 mice); 0.3 mg/kg in data set [4] (dose-range 0.3–3, po, Sprague-Dawley rats). Also, the “effect on LY404039-induced turning behavior” value in data set [2] (3 and 10 mg/kg po, 60 min before LY404039 infusion, P < 0.01) was “potentiated significantly”. The Tonic seizures in data set [3] (30 mg/kg ip) stood at 100%. Also, the “effect on amphetamine-disrupted auditory gating (S2/S1 ratio)” value in data set [4] (0.3 and 3 mg/kg po, amphetamine 3 mg/kg) is on record as “attenuated amphetamine-induced disrupted gating”. In data set [5] (10 μM SAR218645), the “effect on glutamate-induced increases in intracellular calcium” value was “no effect”. In addition, the “calcium response to compound alone” value in data set [5] (SAR218645 alone) is given as “did not elicit a calcium response”. Moreover, in data set [6], the half-maximal effective concentration (EC50) turned out to be 159 nM.

The term EC50 denotes the concentration at which the effect is half-maximal.
